Measurements: US9441012B2, “Fluorinated epoxyketone-based compounds and uses thereof as proteasome inhibitors” (FLUORINOV PHARMA INC., priority 2012, dated 2016)

How the values were obtained:
[1] = molecular target: T1, Caspase-like (C-L) proteasome activity (Mus musculus, UniProt Q60692); assay: Proteasome subunit activity in murine red blood cells after oral administration; format: in vivo, NOD/SCID mice; details: oral gavage, Example 1 50 mg/kg, Example 26 60 mg/kg
T1 construct: RBCs were lysed with assay lysis buffer and incubated on ice for 30 minutes; from tissue; host or cells: red blood cells of NOD/SCID mice after oral dosing
T1 sequence (Q60692 1-238): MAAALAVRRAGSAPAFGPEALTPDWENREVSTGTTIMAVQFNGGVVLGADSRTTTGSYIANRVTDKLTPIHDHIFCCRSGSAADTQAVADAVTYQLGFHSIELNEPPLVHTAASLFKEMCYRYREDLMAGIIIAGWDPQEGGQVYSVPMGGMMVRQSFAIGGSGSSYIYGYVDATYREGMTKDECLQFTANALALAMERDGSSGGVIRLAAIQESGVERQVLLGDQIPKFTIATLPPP
Description: (§1) Cells were harvested by centrifugation at 1,200 rpm at room temperature. Cell pellets were washed with PBS and lysed with assay lysis buffer (50 mM HEPES (N-2-hydroxyethylpiperazine-N′-2-ethanesulfonic acid), pH 7.5; 150 mM NaCl; 1% Triton X-100; 2 mM ATP). Cell lysates were incubated on ice for 30 minutes, mixed by vortex every 5 minutes, and then centrifuged at 12,000 g for 10 minutes. The supernatant was transferred to a 96-well plate. For each assay, 10 μg of total protein were incubated for 1 hour at 37° C. with increasing concentrations (1 nM to 10 μM) of test compound diluted in assay buffer (50 mM Tris-HCl (tris(hydroxymethyl)aminomethane-HCl), pH 7.5; 150 mM NaCl). DMSO alone was used as a control in every assay plate. After incubation, a specific fluorogenic proteasome substrate was added to each assay reaction at a final concentration of 40 μM in a total volume of 100 μL. N-Succinyl-Leu-Leu-Val-Tyr-7-amino-4-methylcoumarin (Suc-Leu-Leu-Val-Tyr-AMC) was used for measuring chymotrypsin-like (CT-L) activity, t-butoxycarbonyl-Leu-Arg-Arg-7-amino-4-methylcoumarin (Boc-Leu-Arg-Arg-AMC) for trypsin-like (T-L) activity, and benzyloxycarbonyl-L-leucyl-L-leucyl-L-glutamyl-7-amino-4-methylcoumarin (Z-Leu-Leu-Glu-AMC) for caspase-like (C-L) activity. The excitation wavelength was set at 360 nm and the fluorescence emission wavelength of AMC was detected at 460 nm. The fluorescence of free AMC released during the enzymatic reaction was measured with a SpectraMax M5 fluorescent spectrophotometric plate reader (Molecular Devices, Sunnyvale, Calif.). AMC release rate was measured at 37° C. in a kinetic mode, recording every 5 minutes for 30 minutes. Experiments were performed in triplicate and repeated at least twice.
(§2) All mouse experiments were performed in accordance with approval from the Ontario Cancer Institute institutional animal review board. Five- to six-week-old male non-obese diabetic/severe combined immunodeficient (NOD/SCID) mice were grouped randomly (n=3 mice per group). Mice were administered vehicle (5% DMSO, 20% Cremophor) or compounds of Formula I at different doses either intravenously or by oral gavage, and venous blood samples (20-50 μL) were collected from each mouse over 24 hours. Blood samples were mixed with heparin (APP Pharmaceuticals; Schaumburg, Ill.) in 0.5 mL tubes in accordance with the manufacturer's instructions. After centrifugal separation at 3,000 g for 10 minutes, red blood cells (RBCs) in the bottom layer were transferred into a new tube and stored at −70° C. until use. RBCs were lysed with assay lysis buffer and incubated on ice for 30 minutes, mixing by vortex every 5 minutes, and then centrifuged at 12,000 g for 10 minutes. The supernatant was transferred to a 96-well plate and proteasome activity was measured as described in above for tumor cell lysates.
(§3) Proteasome subunit activity (Chymotrypsin-like, Trypsin-like, Caspase-like, CT-L, T-L, C-L, respectively) were monitored over the course of 24 hrs following […] administration of representative compounds of Formula I. NOD/SCID mice were treated with the compound from Example 1 (50 mg/kg by oral gavage) and the compound from Example 26 (60 mg/kg by oral gavage) or vehicle control for up to 24 hours, as described above.
(§4) Table 10 summarizes the data for the representative compounds of Formula (I); the compounds of Examples 1 and 26.

[2] = molecular target: T2, Trypsin-like (T-L) proteasome activity (Mus musculus, UniProt P70195); assay: as above; format: in vivo, NOD/SCID mice; details: oral gavage, Example 1 50 mg/kg, Example 26 60 mg/kg
T2 construct: RBCs were lysed with assay lysis buffer and incubated on ice for 30 minutes; from tissue; host or cells: red blood cells of NOD/SCID mice after oral dosing
T2 sequence (P70195 44-277): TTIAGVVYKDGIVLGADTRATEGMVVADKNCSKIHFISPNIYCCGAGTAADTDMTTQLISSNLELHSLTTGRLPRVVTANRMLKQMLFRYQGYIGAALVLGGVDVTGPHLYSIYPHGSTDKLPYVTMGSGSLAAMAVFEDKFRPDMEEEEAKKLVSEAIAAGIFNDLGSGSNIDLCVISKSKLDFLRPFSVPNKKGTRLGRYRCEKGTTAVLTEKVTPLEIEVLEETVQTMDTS
Description: as §1, §2, §3, §4

[3] = system: normal mononuclear hematopoietic cells (CD138−); assay: Viability of primary patient samples (Annexin V, anti-CD138, flow cytometry); format: cell-based; details: 24 hours
Description: Apoptosis was measured by staining cells treated with compounds of Formula I with annexin V-fluorescein isothiocyanate and propidium iodide (both from Biovision Research Products, Mountain View, Calif.) and flow cytometry according to manufacturer's instructions and as previously described [Blood. 2005, 105(10), 4043-4050]. Experiments were performed at least in duplicate and repeated at least twice (n=4-20 data points). Viable primary myeloma cells were identified by staining with phycoerythrin-conjugated mouse monoclonal anti-CD138 antibody (20 μL/[…] cells; Beckman Coulter, Brea, Calif.). The percentage of myeloma cells that were CD138 positive and annexin V negative after compounds of Formula (I) treatment compared with untreated samples was quantified as a marker of cell viability as previously described [Blood. 2007, 109(12), 5430-5438].
Effects of a representative of compounds of Formula I (the compound of Example 1) on the viability of primary malignant and normal hematopoietic cells isolated from patient samples was also studied. […] Viability of normal hematopoietic cells (CD138−) and myeloma cells (CD138+) were measured by flow cytometry with PE-labeled anti-CD138 and FITC-labeled Annexin V co-staining. […]

[4] = system: AML2 mouse xenograft leukemia model; assay: Leukemia AML2 xenograft model; format: in vivo; details: 30 mg/kg oral gavage
Description: Sublethally irradiated NOD-SCID mice bearing an established human tumor xenograft derived from RL and BALB/c mice challenged with the murine tumor cell line AML2 were treated twice weekly on days 1 and 2 (QD×2) with a dose of 30 mg/kg to 200 mg/kg of the compound of Example 1 by oral gavage. Dosing began on Day 6 post tumor challenge.

SMILES | Caspase-like (C-L) mean residual activity relative to vehicle treated controls ([1]; 30 min) | Caspase-like (C-L) mean residual activity relative to vehicle treated controls ([1]; 24 hrs) | Caspase-like (C-L) mean residual activity relative to vehicle treated controls ([1]; time 0) | Trypsin-like (T-L) mean residual activity relative to vehicle treated controls ([2]; 30 min) | Trypsin-like (T-L) mean residual activity relative to vehicle treated controls ([2]; 24 hrs) | Trypsin-like (T-L) mean residual activity relative to vehicle treated controls ([2]; time 0) | LD50 normal mononuclear hematopoietic cells [3] | gross adverse effects including reductions in body weight or alterations in behaviour [4] | tumor growth inhibition ([4]; twice weekly days 1 and 2 (QD×2))
Cc1ncc(C(=O)N[C@@H](COC(F)F)C(=O)N[C@@H](COC(F)F)C(=O)N[C@@H](Cc2ccccc2)C(=O)[C@@]2(C)CO2)s1 [Example 1, 2-methyl-thiazole-5-carboxylic acid ((S)-1-{(S)-1-[(S)-1-benzyl-2-((R)-2-methyloxiranyl)-2-oxo-ethylcarbamoyl]-2-difluoromethoxyethylcarbamoyl}-2-difluoromethoxyethyl)-amide] | 100% | 100% | 100% | 100% | 100% | 100% | > 2.5 µM | no observed gross adverse effects | greater than 40%
C[C@]1(C(=O)[C@H](Cc2ccccc2)NC(=O)[C@H](COC(F)F)NC(=O)[C@H](COC(F)F)NC(=O)CN2CCOCC2)CO1 [Example 26, (S)-N-{(S)-1-[(S)-1-Benzyl-2-((R)-2-methyl-oxiranyl)-2-oxo-ethylcarbamoyl]-2-difluoromethoxyethyl}-3-difluoromethoxy-2-(2-morpholin-4-yl-acetylamino)-propio-namide] | 100% | 100% | 100% | 100% | 100% | 100% |  |  | 
